Test results: the kinase profiling compilation of Christmann-Franck et al. (2016)
pKd: −log10 of the molar value.

Tests used:
Experiment in all cases: KINOMEscan competition binding
FLT3 (human) = FLT3 (human) (UniProt P36888)
CAMK2D (human) = CAMK2D (human) (UniProt Q13557)
CLK1 (human) = CLK1 (human) (UniProt P49759)
NTRK2 (human) = NTRK2 (human) (UniProt Q16620)
PKN1 (human) = PKN1 (human) (UniProt Q16512)
CSNK1G1 (human) = CSNK1G1 (human) (UniProt Q9HCP0)
STK36 (human) = STK36 (human) (UniProt Q9NRP7)
ULK3 (human) = ULK3 (human) (UniProt Q6PHR2)
YSK4 (human) = YSK4 (human) (UniProt Q56UN5)
TEK (human) = TEK (human) (UniProt Q02763)
WEE2 (human) = WEE2 (human) (UniProt P0C1S8)
PRKCI (human) = PRKCI (human) (UniProt P41743)
LYN (human) = LYN (human) (UniProt P07948)
OXSR1 (human) = OXSR1 (human) (UniProt O95747)
MUSK (human) = MUSK (human) (UniProt O15146)
STK35 (human) = STK35 (human) (UniProt Q8TDR2)
EPHB4 (human) = EPHB4 (human) (UniProt P54760)
PRKX (human) = PRKX (human) (UniProt P51817)
AURKB (human) = AURKB (human) (UniProt Q96GD4)
RPS6KA1 KD1 (human) = RPS6KA1 KD1 (human) (UniProt Q15418)
EPHA8 (human) = EPHA8 (human) (UniProt P29322)
ABL2 (human) = ABL2 (human) (UniProt P42684)
CAMK1G (human) = CAMK1G (human) (UniProt Q96NX5)
MAPK7 (human) = MAPK7 (human) (UniProt Q13164)
[1] = test system: EGFR (human), P00533 [G719S]
FRK (human) = FRK (human) (UniProt P42685)
PKN2 (human) = PKN2 (human) (UniProt Q16513)
[2] = test system: EGFR (human), P00533 [P753S; 747-752 del]
AKT1 (human) = AKT1 (human) (UniProt P31749)
CSNK2A2 (human) = CSNK2A2 (human) (UniProt P19784)
MYLK2 (human) = MYLK2 (human) (UniProt Q9H1R3)
CLK2 (human) = CLK2 (human) (UniProt P49760)
DYRK2 (human) = DYRK2 (human) (UniProt Q92630)
IRAK4 (human) = IRAK4 (human) (UniProt Q9NWZ3)
CDKL2 (human) = CDKL2 (human) (UniProt Q92772)
MAPK8 (human) = MAPK8 (human) (UniProt P45983)
STK32B (human) = STK32B (human) (UniProt Q9NY57)
PAK4 (human) = PAK4 (human) (UniProt O96013)
MYLK4 (human) = MYLK4 (human) (UniProt Q86YV6)
[3] = test system: PIK3CA (human), P42336 [E545A]
[4] = test system: ABL1 (human), P00519 [E255K]
STK24 (human) = STK24 (human) (UniProt Q9Y6E0)

MAPK8 (human), sequence (P45983 whole entry, looked up): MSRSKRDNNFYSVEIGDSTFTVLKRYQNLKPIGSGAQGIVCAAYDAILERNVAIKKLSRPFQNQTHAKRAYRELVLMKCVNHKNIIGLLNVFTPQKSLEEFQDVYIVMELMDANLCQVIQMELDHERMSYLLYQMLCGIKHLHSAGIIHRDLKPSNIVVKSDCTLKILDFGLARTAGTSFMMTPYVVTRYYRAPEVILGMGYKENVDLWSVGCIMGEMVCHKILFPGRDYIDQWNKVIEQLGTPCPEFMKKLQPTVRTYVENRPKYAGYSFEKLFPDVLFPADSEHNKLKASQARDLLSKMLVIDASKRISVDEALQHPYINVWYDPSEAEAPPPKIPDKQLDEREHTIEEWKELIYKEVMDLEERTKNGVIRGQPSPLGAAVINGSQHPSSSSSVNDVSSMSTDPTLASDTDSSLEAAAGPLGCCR
IRAK4 (human), sequence (Q9NWZ3 whole entry, looked up): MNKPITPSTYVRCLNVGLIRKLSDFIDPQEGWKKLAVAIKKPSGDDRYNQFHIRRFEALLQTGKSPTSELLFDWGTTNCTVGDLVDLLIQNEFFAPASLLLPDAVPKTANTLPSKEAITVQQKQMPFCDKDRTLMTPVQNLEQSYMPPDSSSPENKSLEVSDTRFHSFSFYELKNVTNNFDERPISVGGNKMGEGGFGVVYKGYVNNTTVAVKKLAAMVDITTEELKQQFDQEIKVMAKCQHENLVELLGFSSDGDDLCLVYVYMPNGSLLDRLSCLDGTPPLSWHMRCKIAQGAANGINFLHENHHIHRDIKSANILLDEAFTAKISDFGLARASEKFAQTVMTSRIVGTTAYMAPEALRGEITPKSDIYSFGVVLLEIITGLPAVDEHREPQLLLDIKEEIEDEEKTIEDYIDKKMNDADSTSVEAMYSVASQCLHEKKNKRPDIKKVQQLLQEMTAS
FLT3 (human), sequence (P36888 whole entry, looked up): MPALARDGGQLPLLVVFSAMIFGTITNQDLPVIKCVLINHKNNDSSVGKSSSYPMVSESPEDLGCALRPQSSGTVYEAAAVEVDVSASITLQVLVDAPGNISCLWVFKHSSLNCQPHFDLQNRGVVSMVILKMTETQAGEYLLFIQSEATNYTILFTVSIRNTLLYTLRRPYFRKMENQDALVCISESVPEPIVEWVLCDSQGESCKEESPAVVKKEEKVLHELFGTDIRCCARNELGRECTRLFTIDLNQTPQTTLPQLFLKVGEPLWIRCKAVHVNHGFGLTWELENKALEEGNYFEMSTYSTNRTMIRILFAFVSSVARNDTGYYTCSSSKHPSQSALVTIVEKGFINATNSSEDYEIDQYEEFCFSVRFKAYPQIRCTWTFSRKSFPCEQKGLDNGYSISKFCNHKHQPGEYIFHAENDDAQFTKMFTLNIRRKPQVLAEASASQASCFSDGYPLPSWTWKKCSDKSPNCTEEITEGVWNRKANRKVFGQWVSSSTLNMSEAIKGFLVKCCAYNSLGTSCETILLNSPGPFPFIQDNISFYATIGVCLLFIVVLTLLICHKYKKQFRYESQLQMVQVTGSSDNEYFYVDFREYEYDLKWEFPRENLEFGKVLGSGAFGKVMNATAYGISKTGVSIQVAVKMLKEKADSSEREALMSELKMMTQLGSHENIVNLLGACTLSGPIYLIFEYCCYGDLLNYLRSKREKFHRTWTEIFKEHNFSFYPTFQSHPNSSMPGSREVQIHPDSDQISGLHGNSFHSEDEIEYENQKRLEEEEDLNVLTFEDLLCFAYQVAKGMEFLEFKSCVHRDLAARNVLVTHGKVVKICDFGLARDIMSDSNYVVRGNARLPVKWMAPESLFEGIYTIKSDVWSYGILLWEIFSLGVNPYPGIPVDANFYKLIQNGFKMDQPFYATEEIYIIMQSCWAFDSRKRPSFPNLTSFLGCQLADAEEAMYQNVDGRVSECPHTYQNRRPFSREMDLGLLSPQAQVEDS
YSK4 (human), sequence (Q56UN5 whole entry, looked up): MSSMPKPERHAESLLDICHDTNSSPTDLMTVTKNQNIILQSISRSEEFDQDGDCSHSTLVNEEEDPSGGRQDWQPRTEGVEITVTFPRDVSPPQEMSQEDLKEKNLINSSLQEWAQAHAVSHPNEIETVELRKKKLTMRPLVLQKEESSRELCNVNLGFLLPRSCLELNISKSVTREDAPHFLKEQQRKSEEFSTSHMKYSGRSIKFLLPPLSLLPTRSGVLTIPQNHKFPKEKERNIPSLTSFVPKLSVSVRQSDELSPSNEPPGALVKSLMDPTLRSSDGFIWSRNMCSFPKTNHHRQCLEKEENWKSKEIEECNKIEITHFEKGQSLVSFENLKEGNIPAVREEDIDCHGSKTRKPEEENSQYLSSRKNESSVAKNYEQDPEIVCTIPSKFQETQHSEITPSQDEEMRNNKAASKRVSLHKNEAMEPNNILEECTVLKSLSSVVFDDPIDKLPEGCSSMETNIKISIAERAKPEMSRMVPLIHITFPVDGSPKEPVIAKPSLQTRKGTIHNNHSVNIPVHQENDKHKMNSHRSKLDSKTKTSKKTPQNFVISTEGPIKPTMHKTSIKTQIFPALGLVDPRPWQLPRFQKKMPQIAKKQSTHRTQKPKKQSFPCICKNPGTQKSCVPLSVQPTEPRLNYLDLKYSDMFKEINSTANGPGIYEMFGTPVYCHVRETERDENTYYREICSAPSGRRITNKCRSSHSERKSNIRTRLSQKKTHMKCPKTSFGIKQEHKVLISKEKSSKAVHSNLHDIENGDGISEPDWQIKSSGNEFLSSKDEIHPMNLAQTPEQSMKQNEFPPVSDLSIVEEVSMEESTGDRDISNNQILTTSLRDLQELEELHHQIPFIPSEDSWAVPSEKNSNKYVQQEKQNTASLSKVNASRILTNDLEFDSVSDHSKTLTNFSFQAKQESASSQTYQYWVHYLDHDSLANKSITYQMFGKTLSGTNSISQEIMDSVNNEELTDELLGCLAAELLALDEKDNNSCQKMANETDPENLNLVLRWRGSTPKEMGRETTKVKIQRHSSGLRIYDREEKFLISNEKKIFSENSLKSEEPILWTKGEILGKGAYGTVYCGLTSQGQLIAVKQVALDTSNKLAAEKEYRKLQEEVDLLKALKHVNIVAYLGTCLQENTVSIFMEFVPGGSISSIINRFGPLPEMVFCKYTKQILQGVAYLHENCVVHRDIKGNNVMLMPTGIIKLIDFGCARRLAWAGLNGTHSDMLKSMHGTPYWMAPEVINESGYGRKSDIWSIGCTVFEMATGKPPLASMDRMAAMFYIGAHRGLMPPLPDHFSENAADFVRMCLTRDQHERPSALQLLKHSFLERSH
OXSR1 (human), sequence (O95747 whole entry, looked up): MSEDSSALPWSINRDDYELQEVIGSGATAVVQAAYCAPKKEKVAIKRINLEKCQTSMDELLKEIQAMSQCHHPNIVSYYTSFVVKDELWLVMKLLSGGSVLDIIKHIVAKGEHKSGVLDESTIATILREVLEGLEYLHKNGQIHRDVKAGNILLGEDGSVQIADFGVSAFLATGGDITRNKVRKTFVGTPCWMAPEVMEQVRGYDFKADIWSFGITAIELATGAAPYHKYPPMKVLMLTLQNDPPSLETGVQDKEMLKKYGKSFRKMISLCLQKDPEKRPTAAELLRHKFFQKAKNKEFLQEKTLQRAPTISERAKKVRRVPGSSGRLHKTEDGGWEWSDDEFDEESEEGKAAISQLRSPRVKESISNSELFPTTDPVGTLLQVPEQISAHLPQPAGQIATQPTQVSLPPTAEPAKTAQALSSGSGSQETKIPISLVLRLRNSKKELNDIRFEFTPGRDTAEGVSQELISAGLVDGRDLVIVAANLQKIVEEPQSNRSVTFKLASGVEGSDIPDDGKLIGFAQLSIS
EPHA8 (human), sequence (P29322 whole entry, looked up): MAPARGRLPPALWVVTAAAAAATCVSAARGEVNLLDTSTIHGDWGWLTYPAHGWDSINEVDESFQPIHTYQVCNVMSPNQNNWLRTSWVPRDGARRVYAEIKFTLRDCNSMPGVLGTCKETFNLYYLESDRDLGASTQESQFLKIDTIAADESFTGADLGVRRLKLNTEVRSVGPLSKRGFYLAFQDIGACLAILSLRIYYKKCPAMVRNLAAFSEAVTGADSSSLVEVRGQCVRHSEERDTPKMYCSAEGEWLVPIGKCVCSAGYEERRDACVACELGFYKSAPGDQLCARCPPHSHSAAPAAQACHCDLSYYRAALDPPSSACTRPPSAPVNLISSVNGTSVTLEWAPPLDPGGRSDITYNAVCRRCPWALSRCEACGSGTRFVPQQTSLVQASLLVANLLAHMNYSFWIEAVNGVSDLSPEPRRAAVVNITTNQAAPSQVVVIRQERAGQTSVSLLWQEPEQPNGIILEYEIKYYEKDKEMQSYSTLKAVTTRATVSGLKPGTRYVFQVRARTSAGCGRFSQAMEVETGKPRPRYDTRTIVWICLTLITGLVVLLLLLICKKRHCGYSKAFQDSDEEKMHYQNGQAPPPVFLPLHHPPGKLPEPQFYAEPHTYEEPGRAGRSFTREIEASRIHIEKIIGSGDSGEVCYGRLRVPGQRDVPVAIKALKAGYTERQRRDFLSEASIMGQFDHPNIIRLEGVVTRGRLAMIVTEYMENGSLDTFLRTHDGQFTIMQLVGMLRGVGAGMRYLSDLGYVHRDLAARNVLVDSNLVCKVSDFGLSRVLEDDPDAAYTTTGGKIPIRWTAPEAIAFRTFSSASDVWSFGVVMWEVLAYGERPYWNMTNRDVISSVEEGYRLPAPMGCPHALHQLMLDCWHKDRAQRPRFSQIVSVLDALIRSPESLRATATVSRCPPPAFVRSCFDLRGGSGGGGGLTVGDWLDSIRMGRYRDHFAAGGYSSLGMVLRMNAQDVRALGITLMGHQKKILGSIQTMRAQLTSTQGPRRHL

`CN(C)C/C=C/C(=O)Nc1cccc(C(=O)Nc2ccc(Nc3nccc(/C(C#N)=C4\Nc5ccccc5S4)n3)cc2)c1` showed a kinase still bound, per cent of control (FLT3 (human); compound 1.0 µM) of 23%, a kinase still bound, per cent of control (CAMK2D (human); compound 1.0 µM) of 100% and a kinase still bound, per cent of control (CLK1 (human); compound 1.0 µM) of 42%. For the same molecule, the kinase still bound, per cent of control (NTRK2 (human); compound 1.0 µM) was 100%, the kinase still bound, per cent of control (PKN1 (human); compound 1.0 µM) was 92% and the kinase still bound, per cent of control (CSNK1G1 (human); compound 1.0 µM) was 92%. The kinase still bound, per cent of control (STK36 (human); compound 1.0 µM) was 95%, the kinase still bound, per cent of control (ULK3 (human); compound 1.0 µM) was 100% and the kinase still bound, per cent of control (YSK4 (human); compound 1.0 µM) was 59%. The kinase still bound, per cent of control (TEK (human); compound 1.0 µM) was 100%, the kinase still bound, per cent of control (WEE2 (human); compound 1.0 µM) was 100% and the kinase still bound, per cent of control (PRKCI (human); compound 1.0 µM) was 100%. It also gave a kinase still bound, per cent of control (LYN (human); compound 1.0 µM) of 94%, a kinase still bound, per cent of control (OXSR1 (human); compound 1.0 µM) of 100% and a kinase still bound, per cent of control (MUSK (human); compound 1.0 µM) of 70%. For the same molecule, the kinase still bound, per cent of control (STK35 (human); compound 1.0 µM) was 97%, the kinase still bound, per cent of control (EPHB4 (human); compound 1.0 µM) was 100% and the kinase still bound, per cent of control (PRKX (human); compound 1.0 µM) was 82%. For the same molecule, the kinase still bound, per cent of control (AURKB (human); compound 1.0 µM) was 83%, the kinase still bound, per cent of control (RPS6KA1 KD1 (human); compound 1.0 µM) was 100% and the kinase still bound, per cent of control (EPHA8 (human); compound 1.0 µM) was 100%. It also gave a kinase still bound, per cent of control (ABL2 (human); compound 1.0 µM) of 100%, a kinase still bound, per cent of control (CAMK1G (human); compound 1.0 µM) of 100% and a kinase still bound, per cent of control (MAPK7 (human); compound 1.0 µM) of 100%. It also gave a kinase still bound, per cent of control ([1]; compound 1.0 µM) of 100%, a kinase still bound, per cent of control (FRK (human); compound 1.0 µM) of 100% and a kinase still bound, per cent of control (PKN2 (human); compound 1.0 µM) of 87%. The kinase still bound, per cent of control ([2]; compound 1.0 µM) was 100%, the kinase still bound, per cent of control (AKT1 (human); compound 1.0 µM) was 6.6% and the kinase still bound, per cent of control (CSNK2A2 (human); compound 1.0 µM) was 8%. The kinase still bound, per cent of control (MYLK2 (human); compound 1.0 µM) was 100%, the kinase still bound, per cent of control (CLK2 (human); compound 1.0 µM) was 100% and the kinase still bound, per cent of control (DYRK2 (human); compound 1.0 µM) was 15%. It also gave a kinase still bound, per cent of control (IRAK4 (human); compound 1.0 µM) of 71%, a kinase still bound, per cent of control (CDKL2 (human); compound 1.0 µM) of 28% and a kinase still bound, per cent of control (MAPK8 (human); compound 1.0 µM) of 0%. It also gave a kinase still bound, per cent of control (STK32B (human); compound 1.0 µM) of 99%, a kinase still bound, per cent of control (PAK4 (human); compound 1.0 µM) of 100% and a kinase still bound, per cent of control (MYLK4 (human); compound 1.0 µM) of 20%. For the same molecule, the kinase still bound, per cent of control ([3]; compound 1.0 µM) was 100%, the kinase still bound, per cent of control ([4]; compound 1.0 µM) was 100% and the kinase still bound, per cent of control (STK24 (human); compound 1.0 µM) was 100%.

`Cc1ccc(NC(=O)c2ccc(NC(=O)/C=C/CN(C)C)cc2)cc1Nc1nccc(-c2cccnc2)n1` showed a kinase still bound, per cent of control (FLT3 (human); compound 10.0 µM) of 75%, a kinase still bound, per cent of control (CAMK2D (human); compound 10.0 µM) of 100% and a kinase still bound, per cent of control (CLK1 (human); compound 10.0 µM) of 24%. The kinase still bound, per cent of control (NTRK2 (human); compound 10.0 µM) was 67%, the kinase still bound, per cent of control (PKN1 (human); compound 10.0 µM) was 100% and the kinase still bound, per cent of control (CSNK1G1 (human); compound 10.0 µM) was 85%. For the same molecule, the kinase still bound, per cent of control (STK36 (human); compound 10.0 µM) was 100%, the kinase still bound, per cent of control (ULK3 (human); compound 10.0 µM) was 100% and the kinase still bound, per cent of control (YSK4 (human); compound 10.0 µM) was 28%. The kinase still bound, per cent of control (TEK (human); compound 10.0 µM) was 93%, the kinase still bound, per cent of control (WEE2 (human); compound 10.0 µM) was 100% and the kinase still bound, per cent of control (PRKCI (human); compound 10.0 µM) was 97%. It also gave a kinase still bound, per cent of control (LYN (human); compound 10.0 µM) of 54%, a kinase still bound, per cent of control (OXSR1 (human); compound 10.0 µM) of 82% and a kinase still bound, per cent of control (MUSK (human); compound 10.0 µM) of 99%. For the same molecule, the kinase still bound, per cent of control (STK35 (human); compound 10.0 µM) was 82%, the kinase still bound, per cent of control (EPHB4 (human); compound 10.0 µM) was 100% and the kinase still bound, per cent of control (PRKX (human); compound 10.0 µM) was 43%. For the same molecule, the kinase still bound, per cent of control (AURKB (human); compound 10.0 µM) was 86%, the kinase still bound, per cent of control (RPS6KA1 KD1 (human); compound 10.0 µM) was 63% and the kinase still bound, per cent of control (EPHA8 (human); compound 10.0 µM) was 81%. The kinase still bound, per cent of control (ABL2 (human); compound 10.0 µM) was 44%, the kinase still bound, per cent of control (CAMK1G (human); compound 10.0 µM) was 79% and the kinase still bound, per cent of control (MAPK7 (human); compound 10.0 µM) was 100%. The kinase still bound, per cent of control ([1]; compound 10.0 µM) was 61%, the kinase still bound, per cent of control (FRK (human); compound 10.0 µM) was 86% and the kinase still bound, per cent of control (PKN2 (human); compound 10.0 µM) was 91%. The kinase still bound, per cent of control ([2]; compound 10.0 µM) was 56%, the kinase still bound, per cent of control (AKT1 (human); compound 10.0 µM) was 100% and the kinase still bound, per cent of control (CSNK2A2 (human); compound 10.0 µM) was 21%. It also gave a kinase still bound, per cent of control (MYLK2 (human); compound 10.0 µM) of 68%, a kinase still bound, per cent of control (CLK2 (human); compound 10.0 µM) of 100% and a kinase still bound, per cent of control (DYRK2 (human); compound 10.0 µM) of 36%. It also gave a kinase still bound, per cent of control (IRAK4 (human); compound 10.0 µM) of 81%, a kinase still bound, per cent of control (CDKL2 (human); compound 10.0 µM) of 100% and a pKd (MAPK8 (human)) of 6.54. For the same molecule, the kinase still bound, per cent of control (MAPK8 (human); compound 10.0 µM) was 0%, the kinase still bound, per cent of control (STK32B (human); compound 10.0 µM) was 100% and the kinase still bound, per cent of control (PAK4 (human); compound 10.0 µM) was 84%. The kinase still bound, per cent of control (MYLK4 (human); compound 10.0 µM) was 55%, the kinase still bound, per cent of control ([3]; compound 10.0 µM) was 100% and the kinase still bound, per cent of control ([4]; compound 10.0 µM) was 64%. It also gave a kinase still bound, per cent of control (STK24 (human); compound 10.0 µM) of 86%.
